Measured values published in patent US11466044B2 (WAYNE STATE UNIVERSITY, priority 2017, dated 2022).
In brackets after ≈: the same amount, converted by molar mass. Read-outs that look alike come from different tables or passages of the source.

What was measured:
MRSA = assay: MIC by broth microdilution, MRSA isolates; type: cell-based; conditions: for MIC AG039 MRSA AAC(6′)-I ANT(4′)-I: clinical isolate AG039, AAC(6′)-I ANT(4′)-I; for MIC AG042 MRSA AAC(6′)-I ANT(4′)-I APH(2′): clinical isolate AG042, AAC(6′)-I ANT(4′)-I APH(2′); for MIC: Staphylococcus aureus, MRSA
E coli wild type = assay: MIC by broth microdilution, wild type E coli; type: cell-based; conditions: for MIC: Escherichia coli
P aeruginosa = assay: MIC by broth microdilution, P aeruginosa isolates; type: cell-based, Pseudomonas aeruginosa; conditions: for MIC AG031 P. aer. APH(3′)-II: clinical isolate AG031, APH(3′)-II; for MIC AG032 P. aer. APH(3′)-II: clinical isolate AG032, APH(3′)-II; for MIC: Pseudomonas aeruginosa
[1] = tested on: E coli carrying specific resistance determinants; assay: MIC by broth microdilution, E coli carrying specific resistance determinants; type: cell-based; conditions: for MIC AG003 E. coli AAC(3)-II: clinical isolate AG003, AAC(3)-II; for MIC: Escherichia coli
[2] = tested on: wild type bacterial ribosomes; assay: in-vitro translation assay, bacterial ribosomes; type: biochemical
Source text: (§1) The antiribosomal activity of these compounds was investigated with cell-free translation assays using both wild type bacterial ribosomes and hybrid ribosomes carrying eukaryotic decoding A sites enabling the prediction of selectivity.

[3] = tested on: A1555G mutant mitochondrial ribosome (human chimeric); assay: in-vitro translation assay, human chimeric ribosomes, A1555G mutant mitochondrial decoding site; type: biochemical; conditions: human mitochondrial decoding site with A1555G point mutation; read-out: IC50 Mitoch. A1555G
Source text: as §1

[4] = tested on: cytosolic ribosome (human chimeric); type: biochemical
Source text: as §1

[5] = tested on: mitochondrial ribosome (human chimeric); type: biochemical
Source text: as §1

[6] = tested on: rabbit reticulocyte ribosomes; assay: in-vitro translation assay, rabbit reticulocyte ribosomes; type: biochemical; conditions: mammalian cytosolic ribosomes (rabbit)
M. abscessus = assay: MIC by broth microdilution, M. abscessus; type: cell-based; conditions: Mycobacteroides abscessus
[7] = tested on: Klebsiella pneumonia AG215; assay: MIC by broth microdilution, Klebsiella pneumonia; type: cell-based; conditions: Klebsiella pneumoniae; strain AG215 Klebsiella pneumonia; read-out: MIC AG215 K. pneumon
[8] = tested on: Acinetobacter baumannii pittii AG225; assay: MIC by broth microdilution, Acinetobacter baumannii; type: cell-based; conditions: strain AG225 Acinetobacter baumannii pittii
[9] = tested on: Enterobacter cloacae AG290; assay: MIC by broth microdilution, Enterobacter cloacae; type: cell-based; conditions: strain AG290 Enterobacter cloacae; read-out: MIC AG290 E. cloacae
M. smegmatis SZ380 = assay: MIC by broth microdilution, M. smegmatis; conditions: Mycolicibacterium smegmatis
[10] = Mycobacterium smegmatis ribosomes, read-out: IC50 Bacterial
[11] = ribosomes with a human cytosolic decoding site, read-out: IC50 Cytosolic
[12] = ribosomes with a human mitochondrial decoding site, read-out: IC50 Mitoch.

**Q.** Which results are given for `CC1CC(N)C2OC(OC3C(N)CC(N)C(O)C3OC3OC(CO)C(OC4OC(CN)C(O)C(O)C4N)C3O)C(N)C(O)C2O1` (stereo not drawn) [DC150]?
**A.** MIC AG038 MRSA (MRSA; clinical isolate AG038): 128 µg/mL (≈ 196 µM); MIC AG039 MRSA AAC(6′)-I ANT(4′)-I (MRSA): 128 µg/mL (≈ 196 µM); MIC AG042 MRSA AAC(6′)-I ANT(4′)-I APH(2′) (MRSA): 128 µg/mL (≈ 196 µM); MIC AG044 MRSA (MRSA; clinical isolate AG044): 128 µg/mL (≈ 196 µM); MIC pH430 WT (E coli wild type; E. coli strain pH430, WT): 64-128 μg/ml; MIC AG001 E. coli WT (E coli wild type; clinical isolate AG001, WT): >128 µg/mL; MIC AG055 E. coli WT (E coli wild type; clinical isolate AG055, WT): >128 µg/mL; MIC AG031 P. aer. APH(3′)-II (P aeruginosa): >128 µg/mL; MIC AG032 P. aer. APH(3′)-II (P aeruginosa): >128 µg/mL; MIC AG003 E. coli AAC(3)-II [1]: >128 µg/mL; IC50 [2, 10]: 0.48 µM; IC50 [3]: 2.3 µM; Target specificity bacterial vs. Cytosolic ([4]; relative target specificity, bacterial vs. human cytosolic): low; IC50 [4, 11]: 12 µM; Target specificity bacterial vs. Mitochondrial ([5]; relative target specificity, bacterial vs. human mitochondrial): low; IC50 [5, 12]: 4.1 µM; IC50 [6]: 13 µM

**Q.** `NC[C@H]1O[C@H](O[C@H]2[C@H](O[C@@H]3O[C@H](CO)[C@@H](O)[C@H]3O)[C@@H](O)[C@H](N)C[C@@H]2N)[C@H](N)[C@@H](O)[C@@H]1O` [Ribostamycin, ribostamycin, reference compound] was tested. Which MIC (MRSA; read-out: MIC AG039 MRSA AAC(6′)-I ANT(4′)-I) did it give?
**A.** > 128 µg/mL

**Q.** What about the MIC (MRSA; read-out: MIC AG042 MRSA AAC(6′)-I ANT(4′)-I APH(2′)) of the same compound?
**A.** > 128 µg/mL

**Q.** And the MIC (MRSA; clinical isolate AG038, read-out: MIC AG038 MRSA)?
**A.** 4 µg/mL (≈ 8.8 µM)

**Q.** What about the MIC (MRSA; clinical isolate AG044, read-out: MIC AG044 MRSA) of the same compound?
**A.** 8 µg/mL (≈ 17.6 µM)

**Q.** And the MIC (E coli wild type; ATCC25922, strain AG212 E. coli (ATCC25922), read-out: MIC AG212 E. coli)?
**A.** 4 µg/mL (≈ 8.8 µM)

**Q.** And the MIC (E coli wild type; WT, Table 3 (Example 1), read-out: MIC WT)?
**A.** 2 µg/mL (≈ 4.4 µM)

**Q.** And the MIC (E coli wild type; WT, Table 5 (Example 3), read-out: MIC E. coli WT)?
**A.** 2 µg/mL (≈ 4.4 µM)

**Q.** And the MIC (E coli wild type; clinical isolate AG001, WT, read-out: MIC AG001 E. coli WT)?
**A.** 4 µg/mL (≈ 8.8 µM)

**Q.** What about the MIC (E coli wild type; clinical isolate AG055, WT, read-out: MIC AG055 E. coli WT) of the same compound?
**A.** 2 µg/mL (≈ 4.4 µM)

**Q.** And the MIC (E coli wild type; clinical isolate AG160 WT, Table 2 (Example 4), read-out: MIC AG160 E. coli WT)?
**A.** 4 µg/mL (≈ 8.8 µM)

**Q.** And the MIC (E coli wild type; engineered strain pH430 WT, Table 2 (Example 4), read-out: MIC pH430 E. coli WT)?
**A.** 2 µg/mL (≈ 4.4 µM)

**Q.** And the MIC (P aeruginosa; ATCC27853, read-out: MIC AG220 P. aerugin)?
**A.** > 128 µg/mL

**Q.** What about the MIC (P aeruginosa; read-out: MIC AG031 P. aer. APH(3′)-II) of the same compound?
**A.** > 128 µg/mL

**Q.** What about the MIC (P aeruginosa; read-out: MIC AG032 P. aer. APH(3′)-II) of the same compound?
**A.** > 128 µg/mL

**Q.** What about the MIC ([1]; read-out: MIC AG003 E. coli AAC(3)-II) of the same compound?
**A.** 4 µg/mL (≈ 8.8 µM)

**Q.** And the MIC ([1]; read-out: MIC AG037 E. coli APH(3′)-III)?
**A.** 32 to 64 µg/mL (≈ 70.4 to 141 µM)

**Q.** What about the MIC ([1]; read-out: MIC AG163 E. coli APH(3′)-I) of the same compound?
**A.** > 128 µg/mL

**Q.** What about the MIC ([1]; read-out: MIC AG166 E. coli APH(3′)-II) of the same compound?
**A.** > 128 µg/mL

**Q.** What about the MIC ([1]; read-out: MIC APH(3)-VI) of the same compound?
**A.** > 64 µg/mL

**Q.** And the MIC ([1]; read-out: MIC APH(3′)-I)?
**A.** > 64 µg/mL

**Q.** And the MIC ([1]; read-out: MIC APH(3′)-II)?
**A.** > 64 µg/mL

**Q.** What about the MIC ([1]; read-out: MIC APH(3′)-III) of the same compound?
**A.** 32 to 64 µg/mL (≈ 70.4 to 141 µM)

**Q.** And the MIC ([1]; read-out: MIC E. coli AG106 AAC(2′)-Ia)?
**A.** 128 µg/mL (≈ 282 µM)

**Q.** What about the MIC ([1]; read-out: MIC E. coli pGB2armA armA) of the same compound?
**A.** 2 µg/mL (≈ 4.4 µM)

**Q.** And the MIC ([1]; read-out: MIC E. coli pH434 AAC(2′)-Ib)?
**A.** > 128 µg/mL

**Q.** What about the MIC ([1]; read-out: MIC pH421 E. coli APH(3′)-I) of the same compound?
**A.** > 128 µg/mL

**Q.** What about the MIC ([1]; read-out: MIC pH422 E. coli APH(3′)-II) of the same compound?
**A.** 128 to 256 µg/mL (≈ 282 to 563 µM)

**Q.** What about the MIC ([1]; read-out: MIC pH423 E. coli APH(3′)-VI) of the same compound?
**A.** > 128 µg/mL

**Q.** And the MIC (M. abscessus; ATCC19977, ATCC 19977 WT, Table 5 (Example 3), read-out: MIC M. abscessus ATCC 19977 WT)?
**A.** 128 µg/mL (≈ 282 µM)

**Q.** And the MIC (M. abscessus; read-out: MIC M. abscessus clinical isolate)?
**A.** 128 µg/mL (≈ 282 µM)

**Q.** And the MIC (M. abscessus; read-out: MIC M. abscessus engineered Δeis2)?
**A.** 32 µg/mL (≈ 70.4 µM)

**Q.** And the IC50 [2, 10]?
**A.** 0.09 µM

**Q.** What about the IC50 ([2]; bacterial ribosome, Table 3 (Example 1), read-out: IC50 Bac) of the same compound?
**A.** 0.09 µM

**Q.** And the IC50 [3]?
**A.** 68 µM

**Q.** And the IC50 ([4]; cytosolic, Table 3 (Example 1), read-out: IC50 Cyt)?
**A.** 484 µM

**Q.** And the IC50 [4, 11]?
**A.** 484 µM

**Q.** What about the IC50 ([5]; mitochondrial, Table 3 (Example 1), read-out: IC50 Mit) of the same compound?
**A.** 443 µM

**Q.** What about the IC50 [5, 12] of the same compound?
**A.** 443 µM

**Q.** What about the IC50 [6] of the same compound?
**A.** 172 µM

**Q.** What about the MIC [7] of the same compound?
**A.** 2 µg/mL (≈ 4.4 µM)

**Q.** And the MIC [8]?
**A.** 4 µg/mL (≈ 8.8 µM)

**Q.** What about the MIC [9] of the same compound?
**A.** 4 µg/mL (≈ 8.8 µM)

**Q.** What about the MIC (M. smegmatis SZ380; SZ380, read-out: MIC M. smegmatis SZ380 WT, SZ380 WT, Table 5 (Example 3)) of the same compound?
**A.** 8 µg/mL (≈ 17.6 µM)

**Q.** And the MIC (M. smegmatis SZ380; SZ380, read-out: MIC SZ380 M. smegmatis, strain SZ380 Mycobacterium smegmatis)?
**A.** 8 µg/mL (≈ 17.6 µM)

**Q.** How did the “MIC AG038 MRSA” value (MRSA; clinical isolate AG038) turn out when `NCC1OC(OC2C(CNC(N)=O)OC(OC3C(O)C(N)CC(N)C3OC3OC(CO)C(O)C(O)C3N)C2O)C(N)C(O)C1O` (stereo not drawn) [DC141] was run?
**A.** 4 to 8 µg/mL

**Q.** What about the “MIC AG039 MRSA AAC(6′)-I ANT(4′)-I” value (MRSA) of the same compound?
**A.** >128 µg/mL

**Q.** What about the “MIC AG042 MRSA AAC(6′)-I ANT(4′)-I APH(2′)” value (MRSA) of the same compound?
**A.** >128 µg/mL

**Q.** And the “MIC AG044 MRSA” value (MRSA; clinical isolate AG044)?
**A.** 4 µg/mL (≈ 6.08 µM)

**Q.** What about the “MIC AG001 E. coli WT” value (E coli wild type; clinical isolate AG001, WT) of the same compound?
**A.** 8 µg/mL (≈ 12.2 µM)

**Q.** And the “MIC AG055 E. coli WT” value (E coli wild type; clinical isolate AG055, WT)?
**A.** 4 µg/mL (≈ 6.08 µM)

**Q.** What about the “MIC AG031 P. aer. APH(3′)-II” value (P aeruginosa) of the same compound?
**A.** >128 µg/mL

**Q.** And the “MIC AG032 P. aer. APH(3′)-II” value (P aeruginosa)?
**A.** >128 µg/mL

**Q.** What about the “MIC AG003 E. coli AAC(3)-II” value [1] of the same compound?
**A.** 4 µg/mL (≈ 6.08 µM)

**Q.** And the IC50 [2, 10]?
**A.** 0.03 µM

**Q.** And the IC50 [3]?
**A.** 28 µM

**Q.** And the IC50 [4, 11]?
**A.** 89 µM

**Q.** What about the IC50 [5, 12] of the same compound?
**A.** 70 µM

**Q.** And the IC50 [6]?
**A.** 29 µM
